Assay results from paper PMC3419191, “Identification of Novel Piperazinylquinoxaline Derivatives as Potent Phosphoinositide 3-Kinase (PI3K) Inhibitors” (PLoS ONE, 2012).

Columns and labels:
A549 = experiment: MTT assay, antiproliferative activity against A549 cells; type: cell-based; conditions: Homo sapiens, 72 h, mean of at least two determinations
Description: (§1) All synthesized target compounds were firstly tested for their antiproliferative activity against five human cancer cell lines, PC3, A549, HCT116, HL60, and KB, using MTT assay.
(§2) Human prostate cancer PC3 cells, lung adenocarcinoma epithelial A549 cells, colon cancer HCT116 cells, promyelocytic leukemia HL60 cells and nasopharyngeal carcinoma KB cells were obtained from the cell bank of the Institute of Biochemistry and Cell Biology, Chinese Academy of Sciences (Shanghai, China). The inhibitory activity of target compounds against tested cancer cell lines was measured using the MTT assay. PC3, A549, HCT116, HL60, and KB cancer cell lines were cultured in RPMI-1640 medium (Invitrogen, Carlsbad, CA, USA) with heat-inactivated 10% fetal bovine serum, penicillin (100 units/mL) and streptomycin (100 µg/mL) and incubated in an atmosphere with 20% oxygen and 5% carbon dioxide at 37°C. All tested compounds were dissolved in DMSO at concentrations of 10.0 mg/mL and diluted to appropriate concentrations. Cells were plated in 96-well plates for 24 h and subsequently treated with different concentrations of all tested compounds for 72 h. Viable cells were determined using 3-(4,5-dimethylthiazol-2-yl)-2,5-diphenyltetrazolium bromide assay kit (MTT, Sigma) according to operation instructions provided by the manufacturer. The concentration of drug causing 50% inhibition in absorbance compared with control cells (IC50) was calculated using the software of dose-effect analysis with microcomputers.

KB = experiment: MTT assay, antiproliferative activity against KB cells; type: cell-based; conditions: Homo sapiens, 72 h, mean of at least two determinations
Description: as §1, §2

HL60 = experiment: MTT assay, antiproliferative activity against HL60 cells; type: cell-based; conditions: Homo sapiens, HL-60, 72 h, mean of at least two determinations
Description: as §1, §2

HCT116 = experiment: MTT assay, antiproliferative activity against HCT116 cells; type: cell-based; conditions: Homo sapiens, HCT-116, 72 h, mean of at least two determinations
Description: as §1, §2

PC3 = experiment: MTT assay, antiproliferative activity against PC3 cells; type: cell-based; conditions: Homo sapiens, PC-3, 72 h, mean of at least two determinations
Description: as §1, §2

Row | Structure (SMILES) | IC50 (A549) [µM] | IC50 (KB) [µM] | IC50 (HL60) [µM] | melting point [°C] | IC50 (HCT116) [µM] | IC50 (PC3) [µM]
1 | O=C(c1ccccc1)N1CCN(c2nc3ccccc3nc2S(=O)(=O)c2ccc(Br)cc2)CC1 [Compound 32, 2-(4-Benzoylpiperazin-1-yl)-3-(4-bromophenylsulfonyl)quinoxaline] | 3.96 | 3.37 | 17.4 | 204 to 205 | 10.1 | 1.4
2 | Cc1ccc(S(=O)(=O)c2nc3ccccc3nc2N2CCN(CCCN3CCOCC3)CC2)cc1 [Compound 50, 2-(4-(3-Morpholinopropyl)piperazin-1-yl)-3-(4-methylphenylsulfonyl)quinoxaline] | 0.51 | – | – | – | 0.31 | 3.83
3 | CC1CN(c2nc3ccccc3nc2S(=O)(=O)c2ccc(F)cc2)CCN1 (stereo not drawn) [Compound 28, 2-(3-Methylpiperazin-1-yl)-3-(4-fluorophenylsulfonyl)quinoxaline] | 3.45 | 2.03 | 1.95 | 119 to 123 | 2.2 | 2.34
4 | Cc1ccc(S(=O)(=O)c2nc3ccccc3nc2N2CCN(C(=O)c3ccccc3)CC2)cc1 [Compound 30, 2-(4-Benzoylpiperazin-1-yl)-3-(4-methylphenylsulfonyl)quinoxaline] | 8.03 | 3.67 | 17.3 | 182 to 185 | 6.9 | 5.81
5 | Cc1ccc(S(=O)(=O)c2nc3ccccc3nc2N2CCN(C(=O)c3ccc(Cl)cc3)CC2)cc1 [Compound 35, 2-(4-(4-Chlorobenzoyl)piperazin-1-yl)-3-(4-methylphenylsulfonyl)quinoxaline] | 21.6 | 2.84 | 6.09 | 188 to 190 | 9.84 | 3.61
6 | COc1ccc(S(=O)(=O)c2nc3ccccc3nc2N2CCN(C)CC2)cc1 [Compound 16, 2-(4-Methylpiperazin-1-yl)-3-(4-methoxyphenylsulfonyl)quinoxaline] | 8.57 | 2.53 | 0.54 | 121 to 124 | 2.37 | 1.55
7 | NC(=O)C1CCN(c2nc3ccccc3nc2S(=O)(=O)c2ccc(Br)cc2)CC1 [Compound 7, 2-(4-Carbamoylpiperidin-1-yl)-3-(4-bromophenylsulfonyl)quinoxaline] | 12.1 | 4.22 | 0.15 | 209 to 210 | 1.61 | 1.17
8 | O=C(c1ccc(Cl)cc1)N1CCN(c2nc3ccccc3nc2S(=O)(=O)c2ccc(Br)cc2)CC1 [Compound 37, 2-(4-(4-Chlorobenzoyl)piperazin-1-yl)-3-(4-bromophenylsulfonyl)quinoxaline] | > 50 | 5.09 | 6.11 | 214 to 216 | 10.6 | 2.89
9 | COc1ccc(S(=O)(=O)c2nc3ccccc3nc2N2CCN(C(C)=O)CC2)cc1 [Compound 11, 2-(4-Acetylpiperazin-1-yl)-3-(4-methoxyphenylsulfonyl)quinoxaline] | 18.6 | 10.3 | 0.48 | 160 to 162 | 3.66 | 2.18
10 | O=S(=O)(c1ccc(F)cc1)c1nc2ccccc2nc1N1CCNCC1 [Compound 23, 2-(Piperazin-1-yl)-3-(4-fluorophenylsulfonyl)quinoxaline] | 2.79 | 4.58 | 1.39 | – | 2.43 | 2.05
11 | O=C(c1ccccc1)N1CCN(c2nc3ccccc3nc2S(=O)(=O)c2ccc(F)cc2)CC1 [Compound 33, 2-(4-Benzoylpiperazin-1-yl)-3-(4-fluorophenylsulfonyl)quinoxaline] | 1.16 | 1.22 | 6.95 | 200 to 202 | 8.88 | 1.77
12 | O=c1cc(N2CCOCC2)oc2c(-c3ccccc3)cccc12 [LY294002, 2-(4-morpholinyl)-8-phenyl-4H-1-benzopyran-4-one, reference compound] | 89.7 | 44.8 | 9.94 | – | 56 | 61.4
13 | Cc1ccc(S(=O)(=O)c2nc3ccccc3nc2N2CCN(S(=O)(=O)c3ccc(C)cc3)CC2)cc1 [Compound 45, 2-(4-(4-Methylphenylsulfonyl)piperazin-1-yl)-3-(4-methylphenylsulfonyl)-quinoxaline] | 49.5 | 2.68 | 9.28 | 174 to 175 | 1.92 | 3.48
14 | Cc1ccc(S(=O)(=O)c2nc3ccccc3nc2N2CCNCC2)cc1 [Compound 20, 2-(Piperazin-1-yl)-3-(4-methylphenylsulfonyl)quinoxaline] | 14.4 | 7.26 | 0.12 | – | 0.47 | 1.32
15 | Cc1ccc(S(=O)(=O)N2CCN(c3nc4ccccc4nc3S(=O)(=O)c3ccc(F)cc3)CC2)cc1 [Compound 48, 2-(4-(4-Methylphenylsulfonyl)piperazin-1-yl)-3-(4-fluorophenylsulfonyl)-quinoxaline] | 48.2 | 5.17 | 9.48 | 172 to 174 | 3.76 | 3.39
16 | NC(=O)C1CCN(c2nc3ccccc3nc2S(=O)(=O)c2ccc(F)cc2)CC1 [Compound 8, 2-(4-Carbamoylpiperidin-1-yl)-3-(4-fluorophenylsulfonyl)quinoxaline] | 10.2 | 6.45 | 4.15 | 198 to 202 | 7.13 | 4.36
17 | COc1ccc(S(=O)(=O)c2nc3ccccc3nc2N2CCN(S(=O)(=O)c3ccc(C)cc3)CC2)cc1 [Compound 46, 2-(4-(4-Methylphenylsulfonyl)piperazin-1-yl)-3-(4-methoxyphenylsulfonyl)-quinoxaline] | > 50 | 2.35 | 15 | 172 to 175 | 14.2 | 6.2
18 | COc1ccc(S(=O)(=O)c2nc3ccccc3nc2N2CCC(C(N)=O)CC2)cc1 [Compound 6, 2-(4-Carbamoylpiperidin-1-yl)-3-(4-methoxyphenylsulfonyl)quinoxaline] | 17 | 10.2 | 0.21 | 185 to 187 | 2.55 | 2.28
19 | O=S(=O)(c1ccc(F)cc1)c1nc2ccccc2nc1N1CCN(CCCN2CCOCC2)CC1 [Compound 53, 2-(4-(3-Morpholinopropyl)piperazin-1-yl)-3-(4-fluorophenylsulfonyl)quinoxaline] | 1.12 | – | – | – | 0.93 | 4.8
20 | COc1ccc(S(=O)(=O)c2nc3ccccc3nc2N2CCN(CCCN3CCOCC3)CC2)cc1 [Compound 51, 2-(4-(3-Morpholinopropyl)piperazin-1-yl)-3-(4-methoxyphenylsulfonyl)-quinoxaline] | 2.1 | – | – | – | 2.59 | 9.3
